# In US7045495B2 (Sloan-Kettering Institute for Cancer Research, priority 1996, dated 2006):
# Experiments:
# SK-GT-5 = test: clonogenic assay, resistance relative to MKN-74; type: cell-based, human; conditions: 10 μg/ml CDDP, 5 μg/ml MMC, 50 FM 5-FU
# Text: (§1) The basis of drug resistance in these disease has not been well defined. […] For gastric cancer applicants have been successful in establishing five long-term cell lines, SK-GT-1, SK-GT-2, SK-GT-4, SK-GT-5, and SK-GT-6 for Sloan Kettering Gastric Tumor (12,13) none of which express P-glycoprotein (14). Yet, all these tumors are resistant to chemotherapy and to the induction of apoptosis. Applicants have reported that the relative sensitivity of these gastric cancer cells to chemotherapy is influenced by their p53 status (14).
# MKN-74 [1] = test: clonogenic assay, resistance relative to MKN-74; type: cell-based, human; conditions: MKN-74 (reference); 10 μg/ml CDDP, 5 μg/ml MMC, 50 FM 5-FU
# Text: as §1
# SK-GT-2 = test: clonogenic assay, resistance relative to MKN-74; type: cell-based, human; conditions: 10 μg/ml CDDP, 5 μg/ml MMC, 50 FM 5-FU
# Text: as §1
# SK-GT-1 = test: clonogenic assay, resistance relative to MKN-74; type: cell-based, human; conditions: clonogenic survival ratio, 10 μg/ml CDDP, 5 μg/ml MMC, 50 FM 5-FU
# Text: as §1
# NU-GC-4 = test: clonogenic assay, resistance relative to MKN-74; type: cell-based, human; conditions: 10 μg/ml CDDP, 5 μg/ml MMC
# Text: as §1
# 16C mammary carcinoma = conditions: cisplatin 10 mg/kg i.v.; safingol 20 mg/kg i.p.; cited from earlier work
# MKN-74 [2] = test: cell viability, trypan blue dye exclusion; type: cell-based, human; conditions: 24 hours, single drug or concomitant; bryostatin 1 μM, Mitomycin-C 1 μg/ml, Taxol 50 μM, Cisplatin 50 μM
# Text: Recently our laboratory has studied the effects of combining bryostatin with chemotherapy both in vitro and in vivo against solid tumors. For our in vitro studies, we have been using the human gastric cancer cell line MKN-74. Cytotoxicity has been examined both by cell viability assays using trypan blue dye exclusion assays and by the induction of apoptosis using quantitative fluorescent microscopy.
Structure (SMILES),Fold-Increase in Resistance Relative to MKN-74 (p53wt) (SK-GT-5) [X],Fold-Increase in Resistance Relative to MKN-74 (p53wt) (MKN-74 [1]) [X],Fold-Increase in Resistance Relative to MKN-74 (p53wt) (SK-GT-2) [X],Fold-Increase in Resistance Relative to MKN-74 (p53wt) (SK-GT-1) [X],Fold-Increase in Resistance Relative to MKN-74 (p53wt) (NU-GC-4) [X],time for tumor to reach 5 times its starting size (16C mammary carcinoma) [days],% of Cells Alive (MKN-74 [2]) [%]
"O=c1[nH]cc(F)c(=O)[nH]1 [5-FU, 5-Fluorouracil]",6,1,12,11,0.6,,
"N.N.[Cl][Pt][Cl] [cisplatin, Cisplatin]",12,1,11,21,2,10,60
